Reference: patent US5023358A, “Vanadyl organo-mineral compound, method for obtaining such a compound, pharmaceutical composition containing this organo-mineral compound” (Panmedica S.A., priority 1987, dated 1991)

Key:
Na^+ /K^+ ATP ase enzyme = details: absorption mechanisms; cited from earlier work
insulin receptor = details: intra-cellular, vanadyl (V^4+) form; cited from earlier work
diabetic rats [1] = assay: Glycemia of diabetic (streptozotocin) and non-diabetic rats after a unique oral administration; format: in vivo, rat
From the text: Then, the anti-diabetic activity of the above described complex of vanadyl and cystein has been examined.
The examination has been performed also starting from the compound with the formula (II). The activity of this compound has been compared on diabetic rats and on non-diabetic rats, and the activity of this compound (II) has be compared with that of the vanadyl sulfate.
Tests have been carried out on animals having a glycemia higher than 3 g/l.
The method is as follows. Diabetes is induced by intraveinous injection of a unique dose of streptozotocin of about 50 mg/kg, on male or female rats of the WISTAR strain with a mean weight of 200 g. The glycemia is measured 4 days after the injection.
The procedure of the pharmacological tests is as follows. A quantity of 45 mg/kg of compound (II) is administered by forcible feeding (doses of 10 ml/kg) to animals which have been fed, in the form of a suspension in a 3% solution of gum arabic. A dose of vanadyl sulfate equimolar to 45 mg/kg of compound (II) is administered.
The glycemia is measured by quantitative analysis. Blood is sampled from the tail of the animal. The glycemia is measured by means of a device named "AMES glucometer" (trade-mark). The rate of glycemia is read on "Derotrostix" dipsticks (trade-mark) of the aforesaid device.

[2] = tested on: male rats of the WISTAR strain; format: in vivo; details: oral, rat
From the text: First, the potential toxicity of the complex has been investigated.
The investigation has been carried out starting from the bimolecular vanadyl compound having one free amin group, of the general formula (II). After a unique oral administration to the rat, the measured toxicity of the compound of formula (II) on the one hand and of the vanadyl sulfate on the other hand have been compared.
The procedure of the toxicological tests is as follows.
On the one hand, the toxicity of the compound (II) is examined by administering orally increasing doses of compound (II), up to 1 g/kg, to a group of 10 male rats of the WISTAR strain with a mean weight of 150 g. A quantity of 10 ml/kg of a suspension of compound (II) in 3% gum arabic is administered, by forcible feeding, to animals which have not been fed. Then, the animals are examined for 14 days, in order to count for the deaths and to search and observe the signs of toxicity.
On the other hand, the acute toxicity of the vanadyl sulfate (VOSO4) is contemplated under similar conditions on animals divided into 7 groups of 10 animals to which the following doses have been administered: 300, 400, 500, 600, 800, 1000 and 1500 mg/kg.
The lethal dose (LD50) has been calculated by the method of […] AND WILCOXON.

diabetic rats [3] = details: oral, cited from earlier work
diabetic rats [4] = details: cited from earlier work
[5] = 45 mg/kg compound (II) or equimolar vanadyl sulfate

## [O]=[V]([O-])([O-])[O-] [vanadate]
Na^+ /K^+ ATP ase enzyme
  effect on Na+/K+ ATPase: inhibiting the Na^+ /K^+ ATP ase enzyme

## [O]=[V+2] [vanadyl (V^4+)]
Insulin receptor
  effect on phosphorylation of the insulin receptor: facilitating or inducing the phosphorylation of the insulin receptor

## O=S(=O)([O-])[O-].[O]=[V+2] [vanadyl sulfate]
Diabetic rats [1]; [5]
  duration of the drop of glycemia: ≤ 2 h
  effect on glycemia: weaker and transitory decrease of the glycemia
Diabetic rats [1]; vanadyl sulfate equimolar to 45 mg/kg of compound (II)
  maximal decrease of glycemia: about 1 g/l
[2]; 800, 1000 and 1500 mg/kg
  signs of toxicity at the higher doses: an hypothermia and cases of chromodacryorrhoea
[2]; unique administration
  dose of first signs of toxicity: 400 mg/kg
[2]; unique administration, 20160 min
  LD50: 600 mg/kg
[2]; unique administration, general and from 400 mg/kg
  signs of toxicity: diarrhoea with a variable seriousness, a decrease of the motor activity and a loss of flesh
Diabetic rats [3]; diabetic rats
  acute toxicity: presents an acute toxicity
Diabetic rats [3]
  anti-diabetic effect in diabetic rats: has an anti-diabetic effect

## sodium vanadate
Diabetic rats [4]; in drink water, diabetic rats
  effect on cardiac function impairment associated to diabetes: the impairing of the cardiac function associated to diabetes is prevented
  effect on glycemia of diabetic rats: the glycemia of the rats is normalized
Diabetic rats [4]; oral
  anti-diabetic effect, taken orally: has an anti-diabetic effect
